# Data reported in PMC8286840, “Identifying SARS-CoV-2 antiviral compounds by screening for small molecule inhibitors of Nsp3 papain-like protease” (Biochemical Journal, 2021).
# Counter-ions that a name gives are not always drawn. Like-named read-outs stand apart in the source and are kept apart here.
# Experiments:
# [1] = molecular target: T1, SARS-CoV-2 PLpro (nsp3 1564–1878) (Severe acute respiratory syndrome coronavirus 2, UniProt P0DTD1); assay: biochemical; set-up: FRET-quenched peptide (Pro3) cleavage by PLpro, 10 min pre-incubation, slope over 20 min, normalised to no-compound control; conditions: read-out: % of control remaining
# [2] = molecular target: T1, SARS-CoV-2 PLpro (nsp3 1564–1878); assay: biochemical; set-up: FRET-quenched peptide (Pro3) cleavage by PLpro, 10 min pre-incubation, slope over 20 min, normalised to no-compound control; conditions: read-out: % of control remaining; remark: listed apart in the source
smiles,measurement,setting,value
Cc1cc(O[C@@H](CCC(F)(F)F)c2ccc(C(=O)NCCC(=O)O)cc2)cc(C)c1-c1ccc(C(C)(C)C)cc1 [Adomeglivant],remaining activity at 1.25 µM,"[1]; Well no.=7043, low concentration screen",99.3%
same,remaining activity at 3.75 µM,"[2]; Well no.=7043, high concentration screen",98.4%
CO[C@H]1O[C@@H]2O[C@@]3(C)CC[C@H]4[C@H](C)CC[C@@H]([C@H]1C)[C@@]24OO3 [Artemether (SM-224)],remaining activity at 1.25 µM,"[1]; Well no.=5188, low concentration screen",94.9%
same,remaining activity at 3.75 µM,"[2]; Well no.=5188, high concentration screen",97.4%
Cc1cc(O)c2c(c1)C(=O)c1cc(O)cc(O)c1C2=O [Emodin],remaining activity at 1.25 µM,"[1]; Well no.=749, low concentration screen",98.9%
same,remaining activity at 1.25 µM,"[1]; Well no.=3282, low concentration screen",92%
same,remaining activity at 3.75 µM,"[2]; Well no.=749, high concentration screen",96.3%
same,remaining activity at 3.75 µM,"[2]; Well no.=3282, high concentration screen",93.4%
C=C1[C@H]2C[C@@]3([C@@H]1O)[C@@H](CC2=O)[C@]12[C@@H]4C[C@H]3[C@H]1N(CC)C[C@]4(C)CC[C@@H]2O [Songorine],remaining activity at 1.25 µM,"[1]; Well no.=3203, low concentration screen",102%
same,remaining activity at 3.75 µM,"[2]; Well no.=3203, high concentration screen",102%
CC(C)c1cc(C(=O)N2Cc3ccc(CN4CCN(C)CC4)cc3C2)c(O)cc1O [AT13387],remaining activity at 1.25 µM,"[1]; Well no.=5061, low concentration screen",95%
same,remaining activity at 3.75 µM,"[2]; Well no.=5061, high concentration screen",99.9%
"CN(C)C(N)=NCCC[C@H](N)C(=O)O [N^G,N^G-Dimethylarginine hydrochloride]",remaining activity at 1.25 µM,"[1]; Well no.=689, low concentration screen",97%
same,remaining activity at 3.75 µM,"[2]; Well no.=689, high concentration screen",97%
NC(=O)N[C@@H](CCC(=O)O)C(=O)O [Carglumic Acid],remaining activity at 1.25 µM,"[1]; Well no.=7594, low concentration screen",99.7%
same,remaining activity at 3.75 µM,"[2]; Well no.=7594, high concentration screen",102%
CCC1(c2ccccc2)C(=O)NCNC1=O [Primidone],remaining activity at 1.25 µM,"[1]; Well no.=1443, low concentration screen",101%
same,remaining activity at 3.75 µM,"[2]; Well no.=1443, high concentration screen",95.8%
Cc1c([C@H](C)[C@@H]2NC[C@@H](C)C[C@H]2O)ccc2c1C[C@H]1[C@H]2CC=C2C[C@@H](O)CC[C@@]21C [Veratramine],remaining activity at 1.25 µM,"[1]; Well no.=3280, low concentration screen",102%
same,remaining activity at 3.75 µM,"[2]; Well no.=3280, high concentration screen",102%
CC[C@@H](C(=O)[C@@H](C)[C@@H](O)[C@H](C)CCc1ccc(C)c(O)c1C(=O)O)[C@H]1O[C@](CC)([C@H]2CC[C@](O)(CC)[C@H](C)O2)C[C@@H]1C [Lasalocid A],remaining activity at 1.25 µM,"[1]; Well no.=3737, low concentration screen",95%
same,remaining activity at 3.75 µM,"[2]; Well no.=3737, high concentration screen",95.2%
CN1C[C@H](C(=O)N[C@]2(C)O[C@@]3(O)[C@@H]4CCCN4C(=O)[C@H](Cc4ccccc4)N3C2=O)C[C@@H]2c3cccc4[nH]cc(c34)C[C@H]21 [Dihydroergotamine mesylate],remaining activity at 1.25 µM,"[1]; Well no.=1701, low concentration screen",98.4%
same,remaining activity at 3.75 µM,"[2]; Well no.=1701, high concentration screen",98.9%
CSc1cccc(Nc2ncc3cc(-c4c(Cl)cccc4Cl)c(=O)n(C)c3n2)c1 [PD173955],remaining activity at 1.25 µM,"[1]; Well no.=2985, low concentration screen",102%
same,remaining activity at 3.75 µM,"[2]; Well no.=2985, high concentration screen",102%
Nc1ncnc2c1ncn2[C@@H]1O[C@H](COP(=O)(O)OP(=O)(O)O)[C@@H](O)[C@H]1O [Adenosine 5'-diphosphate],remaining activity at 1.25 µM,"[1]; Well no.=7363, low concentration screen",104%
same,remaining activity at 1.25 µM,"[1]; Well no.=7868, low concentration screen",102%
same,remaining activity at 3.75 µM,"[2]; Well no.=7363, high concentration screen",105%
same,remaining activity at 3.75 µM,"[2]; Well no.=7868, high concentration screen",104%
CCCCOc1ccc(CC(=O)NO)cc1 [Bufexamac],remaining activity at 1.25 µM,"[1]; Well no.=5265, low concentration screen",101%
same,remaining activity at 3.75 µM,"[2]; Well no.=5265, high concentration screen",99.5%
C=CCN1CCc2nc(N)sc2CC1 [B-HT 920],remaining activity at 1.25 µM,"[1]; Well no.=8195, low concentration screen",99.9%
same,remaining activity at 3.75 µM,"[2]; Well no.=8195, high concentration screen",100%
NC(Cc1cc(O)c(O)cc1O)C(=O)O (racemic) [6-Hydroxy-DL-DOPA],remaining activity at 1.25 µM,"[1]; Well no.=752, low concentration screen",88.3%
same,remaining activity at 3.75 µM,"[2]; Well no.=752, high concentration screen",89.4%
O=C1C[C@@H](c2ccccc2)Oc2cc(O)cc(O)c21 [Pinocembrin],remaining activity at 1.25 µM,"[1]; Well no.=3587, low concentration screen",99.6%
same,remaining activity at 3.75 µM,"[2]; Well no.=3587, high concentration screen",98.4%
Cc1ccc(C)c(OCCn2cc(C(=O)O)c3ccccc32)c1 [ML-098],remaining activity at 1.25 µM,[1],98.4%
same,remaining activity at 3.75 µM,[2],97.6%
"CN(C)[C@@H]1CCc2[nH]c3ccc(NC(=O)c4ccc(F)cc4)cc3c2C1 [N-[(3R)-3-(dimethylamino)-2,3,4,9-tetrahydro-1H-carbazol-6-yl]-4-fluorobenzamide hydrochloride]",remaining activity at 1.25 µM,"[1]; Well no.=6008, low concentration screen",97.7%
same,remaining activity at 3.75 µM,"[2]; Well no.=6008, high concentration screen",95.9%
Nc1nc2[nH]cnc2c(=S)[nH]1 [Thioguanine],remaining activity at 1.25 µM,"[1]; Well no.=4624, low concentration screen",102%
same,remaining activity at 3.75 µM,"[2]; Well no.=4624, high concentration screen",102%
NC(N)=Nc1ccc2[nH]c3c(c2c1)C[C@@]1(O)[C@H]2Cc4ccc(O)c5c4[C@@]1(CCN2CC1CC1)[C@H]3O5 [Guanidinyl-naltrindole di-trifluoroacetate],remaining activity at 1.25 µM,"[1]; Well no.=763, low concentration screen",96%
same,remaining activity at 3.75 µM,"[2]; Well no.=763, high concentration screen",99.9%
Cc1cc(NS(=O)(=O)c2ccc(N)cc2)no1 [Sulfamethoxazole],remaining activity at 1.25 µM,"[1]; Well no.=4662, low concentration screen",102%
same,remaining activity at 3.75 µM,"[2]; Well no.=4662, high concentration screen",98.1%
same,remaining activity at 3.75 µM,"[2]; Well no.=7398, high concentration screen",107%
O=C(O)c1c[nH]c2ccccc12 [Indole-3-carboxylic acid],remaining activity at 1.25 µM,"[1]; Well no.=6741, low concentration screen",95.4%
same,remaining activity at 3.75 µM,"[2]; Well no.=6741, high concentration screen",97.8%
Cc1c(-c2c(-c3ccc(F)o3)sc3ncnc(O[C@H](Cc4ccccc4OCc4ccnn4CC(F)(F)F)C(=O)O)c23)ccc(OCCN2CCN(C)CC2)c1Cl [S63845],remaining activity at 1.25 µM,"[1]; Well no.=7208, low concentration screen",92.6%
same,remaining activity at 3.75 µM,"[2]; Well no.=7208, high concentration screen",88.1%
CN(C)C(=O)C(CCN1CCC(O)(c2ccc(Cl)cc2)CC1)(c1ccccc1)c1ccccc1 [Loperamide (hydrochloride)],remaining activity at 1.25 µM,"[1]; Well no.=7427, low concentration screen",97.7%
same,remaining activity at 3.75 µM,"[2]; Well no.=7427, high concentration screen",101%
Cc1cnc(Nc2ccc(N3CCN(C)CC3)cc2)nc1Nc1cccc(S(=O)(=O)NC(C)(C)C)c1 [TG101209],remaining activity at 1.25 µM,"[1]; Well no.=2805, low concentration screen",94%
same,remaining activity at 3.75 µM,"[2]; Well no.=2805, high concentration screen",96.7%
C[C@H]([C@H](O)CCC(C)(C)O)[C@H]1CC[C@@]2(O)C3=CC(=O)[C@@H]4C[C@@H](O)[C@@H](O)C[C@]4(C)[C@H]3CC[C@]12C,remaining activity at 1.25 µM,"[1]; Well no.=3603, low concentration screen",101%
same,remaining activity at 3.75 µM,"[2]; Well no.=3603, high concentration screen",106%
CCOC(=O)[C@H](CCc1ccccc1)N[C@@H](C)C(=O)N1CCC[C@H]1C(=O)O [Enalapril],remaining activity at 1.25 µM,"[1]; Well no.=2024, low concentration screen",93.5%
same,remaining activity at 3.75 µM,"[2]; Well no.=2024, high concentration screen",102%
NCCCCNCCCN [Spermidine],remaining activity at 1.25 µM,"[1]; Well no.=7069, low concentration screen",107%
same,remaining activity at 3.75 µM,"[2]; Well no.=7069, high concentration screen",105%
C/C=C(\C)C(=O)N[C@@H](c1ccccc1)[C@@H](O)C(=O)O[C@H]1C[C@@]2(O)[C@@H](OC(=O)c3ccccc3)[C@@H]3[C@]4(OC(C)=O)CO[C@@H]4C[C@H](O)[C@@]3(C)C(=O)[C@H](OC(C)=O)C(=C1C)C2(C)C [Cephalomannine],remaining activity at 1.25 µM,"[1]; Well no.=5204, low concentration screen",97.2%
same,remaining activity at 3.75 µM,"[2]; Well no.=5204, high concentration screen",99.1%
OCC1=C[C@@H](O)[C@@H]2C=CO[C@@H](O[C@@H]3O[C@H](CO)[C@@H](O)[C@H](O)[C@H]3O)[C@H]12 [Aucubin],remaining activity at 1.25 µM,"[1]; Well no.=3162, low concentration screen",99.3%
same,remaining activity at 3.75 µM,"[2]; Well no.=3162, high concentration screen",97.6%
Cc1nc2c([nH]1)c(=O)n(C)c(=O)n2Cc1ccco1 [Furafylline],remaining activity at 1.25 µM,"[1]; Well no.=665, low concentration screen",95.4%
same,remaining activity at 1.25 µM,"[1]; Well no.=1544, low concentration screen",97.6%
same,remaining activity at 3.75 µM,"[2]; Well no.=665, high concentration screen",92.2%
same,remaining activity at 3.75 µM,"[2]; Well no.=1544, high concentration screen",100%
